Experimental data as given in publication PMC7712541, “Seven New Cytotoxic and Antimicrobial Xanthoquinodins from Jugulospora vestita” (Journal of Fungi, 2020).
Converted amounts (≈) assume the structure as drawn.

Columns and labels:
Candida albicans = assay: MIC, antifungal test; format: cell-based; design: key to Minimum inhibitory concentration (MIC): –: no inhibition observed under test conditions
Description: (§1) Compounds were tested for their antimicrobial activity against […] fungi (Candida albicans, Mucor hiemails, Pichia anomala, Rhodotorula glutinis and Schizosaccharomyces pombe), four different Gram-positive bacteria (Bacillus subtilis, Micrococcus luteus, Mycobacterium smegmatis and Staphylococcus aureus), and three Gram-negative bacteria (Chromobacterium violaceum, Escherichia coli and Pseudomonas aeruginosa), using oxytetracycline as a positive control against Gram-positive and Gram-negative bacteria, while nystatin was used as an antifungal positive control. Besides, cytotoxicities of the compounds against seven mammalian cell lines (human endocervical adenocarcinoma KB 3.1, breast cancer MCF-7, lung cancer A549, ovary cancer SK-OV-3, prostate cancer PC-3, squamous cancer A431, and mouse fibroblasts L929) were determined by the microculture tetrazolium test (MTT) method, using epothilon B as the positive control. Both bioactivity assays were performed following our standard protocols.

Mucor hiemalis = assay: MIC, antifungal test; format: cell-based; design: key to Minimum inhibitory concentration (MIC): –: no inhibition observed under test conditions; settings: for MIC: read-out: Minimum inhibitory concentration (MIC)
Description: as §1

Pichia anomala = assay: MIC, antifungal test; format: cell-based; design: key to Minimum inhibitory concentration (MIC): –: no inhibition observed under test conditions
Description: as §1

Rhodotorula glutinis = assay: MIC, antifungal test; format: cell-based; design: key to Minimum inhibitory concentration (MIC): –: no inhibition observed under test conditions
Description: as §1

[1] = system: Schizosaccharomyces pombe; assay: MIC, antifungal test; format: cell-based; design: key to Minimum inhibitory concentration (MIC): –: no inhibition observed under test conditions
Description: as §1

Bacillus subtilis = assay: MIC, antibacterial test; format: cell-based; settings: read-out: Minimum inhibitory concentration (MIC)
Description: as §1

Micrococcus luteus = assay: MIC, antibacterial test; format: cell-based; settings: read-out: Minimum inhibitory concentration (MIC)
Description: as §1

Staphylococcus aureus = assay: MIC, antibacterial test; format: cell-based; settings: read-out: Minimum inhibitory concentration (MIC)
Description: as §1

Mycobacterium smegmatis = assay: MIC, antibacterial test; format: cell-based; design: key: –: no inhibition observed under test conditions
Description: as §1

[2] = system: Chromobacterium violaceum; assay: MIC, antibacterial test; format: cell-based; design: key to Minimum inhibitory concentration (MIC): –: no inhibition observed under test conditions
Description: as §1

Escherichia coli = assay: MIC, antibacterial test; format: cell-based; design: key to Minimum inhibitory concentration (MIC): –: no inhibition observed under test conditions
Description: as §1

Pseudomonas aeruginosa = assay: MIC, antibacterial test; format: cell-based; design: key to Minimum inhibitory concentration (MIC): –: no inhibition observed under test conditions
Description: as §1

Cytotoxicity, MTT method = assay: Cytotoxicity, MTT method
Description: as §1

[3] = system: KB 3.1, L929, A549, SK-OV-3, PC-3, A431, and MCF-7 mammalian cell lines; assay: Cytotoxicity, summary over all tested cell lines; format: cell-based; settings: seven mammalian cell lines; read-out: IC50 values, range over all tested cell lines
Description: as §1

NCI-H187 and Vero = system: NCI-H187 and Vero; design: method as in PMID 29677644; settings: cited from earlier work
[4] = system: Al. brassicicola, Co. gloeosporioides, Co. truncatum, Cu. lunata and Py. grisea; design: method as in PMID 29677644; settings: cited from earlier work
[5] = system: A431 human squamous cancer cells; assay: Cytotoxicity, MTT method; settings: read-out: Cytotoxicity, half maximal inhibitory concentration (IC50); A431, MTT
Description: as §1

[6] = system: MCF-7 human breast cancer cells; assay: Cytotoxicity, MTT method; settings: read-out: Cytotoxicity, half maximal inhibitory concentration (IC50); MCF-7, MTT
Description: as §1

[7] = system: human endocervical adenocarcinoma KB 3.1; assay: Cytotoxicity, MTT method; settings: read-out: Cytotoxicity, half maximal inhibitory concentration (IC50); KB 3.1, MTT
Description: as §1

lung cancer A549 = assay: Cytotoxicity, MTT method; settings: read-out: Cytotoxicity, half maximal inhibitory concentration (IC50); A549, MTT
Description: as §1

mouse fibroblasts L929 = assay: Cytotoxicity, MTT method; settings: read-out: Cytotoxicity, half maximal inhibitory concentration (IC50); L929, MTT
Description: as §1

ovary cancer SK-OV-3 = assay: Cytotoxicity, MTT method; settings: read-out: Cytotoxicity, half maximal inhibitory concentration (IC50); SK-OV-3, MTT
Description: as §1

prostate cancer PC-3 = assay: Cytotoxicity, MTT method; settings: read-out: Cytotoxicity, half maximal inhibitory concentration (IC50); PC-3, MTT
Description: as §1

[8] = system: Co. truncatum and Cu. lunata; design: method as in PMID 29677644; settings: cited from earlier work
[9] = system: PC-3 prostate cancer cells; design: method as in PMID 31433962; settings: cited from earlier work
[10] = read-out: Minimum inhibitory concentration (MIC)
[11] = human, A431 squamous cancer cells
[12] = human, KB 3.1 endocervical adenocarcinoma cells
[13] = human, MCF-7 breast cancer cells
[14] = human, PC-3 prostate cancer cells
[15] = human, SK-OV-3 ovary cancer cells

Compound	Minimum inhibitory concentration (MIC) (Candida albicans)	MIC (Mucor hiemalis)	Minimum inhibitory concentration (MIC) (Pichia anomala)	Minimum inhibitory concentration (MIC) [1]	MIC (Bacillus subtilis)	MIC (Micrococcus luteus)	MIC (Staphylococcus aureus)	Minimum inhibitory concentration (MIC) (Mycobacterium smegmatis)	Minimum inhibitory concentration (MIC) [2]	Minimum inhibitory concentration (MIC) (Escherichia coli)	Minimum inhibitory concentration (MIC) (Pseudomonas aeruginosa)	IC50 [3]	Minimum inhibitory concentration (MIC) (Rhodotorula glutinis)	IC50 (Cytotoxicity, MTT method; [11])	IC50 (Cytotoxicity, MTT method; human, A549 lung cancer cells)	IC50 (Cytotoxicity, MTT method; [12])	IC50 (Cytotoxicity, MTT method; [13])	IC50 (Cytotoxicity, MTT method; [14])	IC50 (Cytotoxicity, MTT method; [15])	IC50 (Cytotoxicity, MTT method; mouse, L929 fibroblasts)	also measured
CCCC(=O)O[C@H]1c2cc(C)cc(O)c2C(=O)C2=C(O)[C@H]3C=C[C@]21Cc1cc(O)c2c(c13)O[C@@]1(C(=O)OC)C(=C(O)[C@@H](O)C[C@@H]1O)C2=O [Compound 4, Xanthoquinodin B12]	–	66.7 µg/mL (≈ 101 µM)	–	–	0.8 µg/mL (≈ 1.21 µM)	2.1 µg/mL (≈ 3.18 µM)	2.1 µg/mL (≈ 3.18 µM)	–	–	–	–	1030 to 18600 nM									MIC (Rhodotorula glutinis; [10]): 66.7 µg/mL (≈ 101 µM); IC50 (Cytotoxicity, MTT method; mouse): 13500 nM
COC(=O)[C@]12Oc3c(c(O)cc4c3[C@@H]3C=C[C@]5(C4)C(=C3O)C(=O)c3c(O)cc(C)cc3[C@@H]5OC(C)=O)C(=O)C1=C(O)CC[C@@H]2O [Compound 5, Xanthoquinodin B13]	–	66.7 µg/mL (≈ 108 µM)	–	–	0.2 µg/mL (≈ 0.324 µM)	2.1 µg/mL (≈ 3.41 µM)	8.3 µg/mL (≈ 13.5 µM)	–	–	–	–	30 to 1460 nM	–								IC50 (Cytotoxicity, MTT method; mouse): 1120 nM
CCCC(=O)O[C@H]1c2cc(C)cc(O)c2C(=O)C2=C(O)[C@H]3C=C[C@]21Cc1cc(O)c2c(c13)O[C@@](C(=O)OC)([C@@H]1CCC(=O)O1)CC2=O [Compound 6, Xanthoquinodin B14]	–	66.7 µg/mL (≈ 103 µM)	–	–	4.2 µg/mL (≈ 6.52 µM)	8.3 µg/mL (≈ 12.9 µM)	4.2 µg/mL (≈ 6.52 µM)	–	–	–	–	1030 to 18600 nM	–	3110 nM	18600 nM	3420 nM	1100 nM	5430 nM	3880 nM	10600 nM	
CCCC(=O)O[C@H]1c2cc(C)cc(O)c2C(=O)C2=C(O)[C@H]3C=C[C@]21Cc1cc(O)c2c(c13)O[C@@](C(=O)OC)([C@@H](O)CCC(=O)O)CC2=O [Compound 7, Xanthoquinodin B15]	–	66.7 µg/mL (≈ 101 µM)	–	–	4.2 µg/mL (≈ 6.34 µM)	4.2 µg/mL (≈ 6.34 µM)	8.3 µg/mL (≈ 12.5 µM)	–	–	–	–	1030 to 18600 nM	–	2870 nM	11500 nM	3470 nM	1030 nM	4980 nM	3930 nM	9970 nM	
COC(=O)[C@]12Oc3c(c(O)cc4c3[C@@H]3C=C[C@]5(C4)C(=C(O)c4c(O)cc(C)cc4[C@@H]5O)C3=O)C(=O)C1=C(O)CC[C@@H]2O [Compound 8, Xanthoquinodin B4]	–		–	–	2.1 µg/mL (≈ 3.66 µM)	8.3 µg/mL (≈ 14.4 µM)	8.3 µg/mL (≈ 14.4 µM)	–		–	–	100 to 4700 nM	–	160 nM	1220 nM	1060 nM	100 nM	3140 nM	470 nM	4700 nM	Minimum inhibitory concentration (MIC) (Mucor hiemalis): –; MIC [2, 10]: 66.7 µg/mL (≈ 116 µM); Cytotoxicity compared with other xanthoquinodins (in words) (NCI-H187 and Vero): stronger cytotoxicity; Antifungal effects (in words) [4]: significant antifungal effects
C/C(=C\c1csc(C)n1)[C@@H]1C[C@@H]2O[C@]2(C)CCC[C@H](C)[C@H](O)[C@@H](C)C(=O)C(C)(C)[C@@H](O)CC(=O)O1 [epothilon B, reference compound]																					IC50 [5]: 0.05 nM; IC50 [6]: 0.03 nM; IC50 [7]: 0.03 nM; IC50 (lung cancer A549): 0.09 nM; IC50 (mouse fibroblasts L929): 0.51 nM; IC50 (ovary cancer SK-OV-3): 0.09 nM; IC50 (prostate cancer PC-3): 0.07 nM
COC(=O)[C@]12Oc3cc4c(c(O)c3C(=O)C1=C(O)CC[C@@H]2O)[C@@H]1C=C[C@]2(C4)C(=C(O)c3c(O)cc(C)cc3[C@@H]2O)C1=O [xanthoquinodin A6]																					Cytotoxicity compared with other xanthoquinodins (in words) (NCI-H187 and Vero): stronger cytotoxicity; Antifungal effects (in words) [8]: significant antifungal effects
COC(=O)[C@@]12Oc3c(c(O)cc4c3[C@@H]3C=C[C@]5(C4)C(=C(O)c4c(O)cc(C)cc4[C@@H]5O)C3=O)C(=O)C1=C(O)CC[C@@H]2O [xanthoquinodin B5]																					Cytotoxicity compared with other xanthoquinodins (in words) (NCI-H187 and Vero): stronger cytotoxicity; Antifungal effects (in words) [4]: significant antifungal effects
ketoxanthoquinodin A6																					Antifungal effects (in words) [8]: significant antifungal effects
xanthoquinodin JBIR-99																					Antiproliferative activity (in words) [9]: high selective antiproliferative activity
